For data set [1], the system named is Staphylococcus aureus 209P. Put plainly: MIC, standard serial dilution method. It is filed as cell-based. Conditions: Mueller-Hinton agar, 37° C.
Data set [2] deals with Staphylococcus aureus Ap01. The data set can be described thus: MIC, standard serial dilution method. It is filed as cell-based. Particulars: resistance mechanism ANT(4'), Mueller-Hinton agar, 37° C.
The subject of data set [3] is Bacillus subtilis PCI219. The data set can be described thus: MIC, standard serial dilution method. It is filed as cell-based. Conditions: Mueller-Hinton agar, 37° C.
The subject of data set [4] is Corynebacterium bovis 1810. The data set can be described thus: MIC, standard serial dilution method. It is filed as cell-based. Conditions: Mueller-Hinton agar, 37° C.
Data set [5] deals with Escherichia coli K-12. Put plainly: MIC, standard serial dilution method. It is filed as cell-based. Particulars: K12.
In data set [6] the test system is Escherichia coli K-12 R5. Put plainly: microbe, parasite or virus in culture. It is filed as cell-based. Conditions: K12R5; Escherichia coli K-12 R5; resistance mechanism AAC(6'); Mueller-Hinton agar, 37° C.
Data set [7] has as its system Escherichia coli K-12 ML 1629. The data set can be described thus: microbe, parasite or virus in culture. It is filed as cell-based. Particulars: K12ML1629.
The subject of data set [8] is Escherichia coli K-12 LA 290 R55. The data set can be described thus: microbe, parasite or virus in culture. It is filed as cell-based. Particulars: K12LA290R55.
The subject of data set [9] is Escherichia coli JR225. Put plainly: microbe, parasite or virus in culture. It is filed as cell-based. Conditions: resistance mechanism AAC(3), Mueller-Hinton agar, 37° C.
Data set [10] concerns Escherichia coli JR66/W677. Put plainly: microbe, parasite or virus in culture. It is filed as cell-based. Conditions: resistance mechanism APH(3')-II, ANT(2"), Mueller-Hinton agar, 37° C.
For data set [11], the system named is Mycobacterium 607. The data set can be described thus: MIC, standard serial dilution method. It is filed as cell-based. Conditions: Mueller-Hinton agar, 37° C.
Data set [12] concerns Klebsiella pneumoniae 22#3038. The data set can be described thus: MIC, standard serial dilution method. Particulars: resistance mechanism APH(3')-II, ANT(2"), Mueller-Hinton agar, 37° C. It is filed as cell-based.
Data set [13] concerns Proteus rettgeri GN 311. The data set can be described thus: MIC, standard serial dilution method. It is filed as cell-based. Particulars: Providencia rettgeri, GN311; Proteus rettgeri GN 311; Mueller-Hinton agar, 37° C; read-out: MIC.
In data set [14] the test system is Serratia marcescens. The data set can be described thus: MIC, standard serial dilution method. It is filed as cell-based. Conditions: Mueller-Hinton agar, 37° C.
For data set [15], the system named is Providencia sp. Pv 16. Put plainly: MIC, standard serial dilution method. It is filed as cell-based. Conditions: SP.PV16, resistance mechanism AAC(2'), Mueller-Hinton agar, 37° C.
The subject of data set [16] is Pseudomonas aeruginosa A3. The data set can be described thus: MIC, standard serial dilution method. Conditions: Mueller-Hinton agar, 37° C. It is filed as cell-based.
For data set [17], the system named is Pseudomonas aeruginosa GN 315. The data set can be described thus: MIC, standard serial dilution method. It is filed as cell-based. Conditions: GN315; Pseudomonas aeruginosa GN 315; resistance mechanism AAC(6'); Mueller-Hinton agar, 37° C; read-out: MIC.
Data set [18] in a line: in vivo. Particulars: mouse, iv, pH 7. The source says: Further, in order to estimate acute toxicity of the compound of the general formula (I) according to this invention, some examples of the compounds of this invention were independently dissolved in water to prepare aqueous solutions (as adjusted to pH 7 by addition of hydrochloric acid). […] The tested compounds of this invention are expressed by the same abbreviations as in Table 1. […] The comparative compounds as tested are also expressed by the same abbreviations as in Table 1.

The mark [19] stands for this setting: Escherichia coli K-12, Mueller-Hinton agar, 37° C, read-out: MIC.
Where [20] appears, read: Escherichia coli K-12 LA 290 R55, resistance mechanism ANT(2"), Mueller-Hinton agar, 37° C.
[21] abbreviates: Escherichia coli K-12 ML 1629, resistance mechanism APH(3')-I, Mueller-Hinton agar, 37° C, read-out: MIC.

Each structure is given as a SMILES string. Values after ≈ are worked out from the molar mass of the structure shown. Read-outs that look alike come from different tables or passages of the source.

What is called LD50 is the dose expected to kill half of the subjects tested. Read a low LD50 as greater toxicity. Take `NC[C@@H]1CC[C@@H](N)[C@@H](O[C@@H]2[C@@H](N)C[C@@H](N)[C@H](O[C@H]3O[C@H](CO)[C@@H](O)[C@H](N)[C@H]3O)C2(F)F)O1` [Compound 5FF-DKB, 5,3',4'-trideoxy-5,5-difluorokanamycin B]: the MIC in [1] came out at 0.78 µg/mL (≈ 1.65 µM); in data set [2], 3.12 µg/mL (≈ 6.62 µM); in [3] it was 0.39 µg/mL (≈ 0.827 µM); in data set [4], 1.56 µg/mL (≈ 3.31 µM); in [5] (setting [19]), 0.39 µg/mL (≈ 0.827 µM); in data set [6], 100 µg/mL (≈ 212 µM). Also, the MIC turned out to be 0.78 µg/mL (≈ 1.65 µM) in data set [7] (Escherichia coli); 1.56 µg/mL (≈ 3.31 µM) in data set [8] (setting [20]); 3.12 µg/mL (≈ 6.62 µM) in data set [9]; 1.56 µg/mL (≈ 3.31 µM) in [10]; 1.56 µg/mL (≈ 3.31 µM) in data set [11]; 1.56 µg/mL (≈ 3.31 µM) in [12]. Besides, the MIC in data set [13] is 0.39 µg/mL (≈ 0.827 µM); in data set [14] it was 12.5 µg/mL (≈ 26.5 µM); in data set [15], 12.5 µg/mL (≈ 26.5 µM); in data set [16] it was 0.39 µg/mL (≈ 0.827 µM); in [17], more than 100 µg/mL. The 50% lethal dose (LD50) in [18] worked out at 250 mg/kg.

For `NCC[C@H](O)C(=O)N[C@@H]1C[C@H](N)[C@@H](O[C@H]2O[C@H](CN)CC[C@H]2N)C(F)(F)[C@H]1O[C@H]1O[C@H](CO)[C@@H](O)[C@H](N)[C@H]1O` [Compound 5FF-DKB-AHB, 1-N-[(S)-4-amino-2-hydroxybutyryl]-5,3',4'-trideoxy-5,5-difluorokanamycin B], the MIC in data set [1] is 0.39 µg/mL (≈ 0.681 µM); in data set [2] it was 3.12 µg/mL (≈ 5.45 µM); in data set [3], 0.39 µg/mL (≈ 0.681 µM); in [4], less than 0.2 µg/mL; in data set [5] (setting [19]) it was less than 0.2 µg/mL; in data set [6], 3.12 µg/mL (≈ 5.45 µM). Also, the MIC is 0.39 µg/mL (≈ 0.681 µM) in data set [7] (setting [21]); less than 0.2 µg/mL in data set [8] (setting [20]); less than 0.2 µg/mL in data set [9]; 0.39 µg/mL (≈ 0.681 µM) in data set [10]; 0.78 µg/mL (≈ 1.36 µM) in [11]; 0.78 µg/mL (≈ 1.36 µM) in data set [12]. Moreover, the MIC in [13] amounted to 0.39 µg/mL (≈ 0.681 µM); in [14], 1.56 µg/mL (≈ 2.72 µM); in data set [15], 0.78 µg/mL (≈ 1.36 µM); in data set [16], 0.78 µg/mL (≈ 1.36 µM); in data set [17] it was 12.5 µg/mL (≈ 21.8 µM). In [18], this compound had an LD50 of approximately 200 mg/kg.

As for `CN[C@@H]1[C@@H](O)[C@@H](O[C@H]2[C@H](N)C[C@H](N)[C@@H](O[C@H]3O[C@H]([C@@H](C)NC)CC[C@H]3N)C2(F)F)OC[C@]1(C)O` [Compound 5FF-Genta-C1, 5-deoxy-5,5-difluorogentamicin C1], the MIC was 1.56 µg/mL (≈ 3.14 µM) in [1]; 12.5 µg/mL (≈ 25.1 µM) in data set [2]; 1.56 µg/mL (≈ 3.14 µM) in [3]; 3.12 µg/mL (≈ 6.27 µM) in [4]; 1.56 µg/mL (≈ 3.14 µM) in [5] (setting [19]); 1.56 µg/mL (≈ 3.14 µM) in [6]. In addition, the MIC in data set [7] (setting [21]) came out at 1.56 µg/mL (≈ 3.14 µM); in [8] (Escherichia coli), 0.78 µg/mL (≈ 1.57 µM); in data set [9] it was 12.5 µg/mL (≈ 25.1 µM); in data set [10], 0.78 µg/mL (≈ 1.57 µM); in data set [11], 1.56 µg/mL (≈ 3.14 µM); in data set [12], 3.12 µg/mL (≈ 6.27 µM). Besides, the MIC was determined as 1.56 µg/mL (≈ 3.14 µM) in data set [13]; 1.56 µg/mL (≈ 3.14 µM) in [14]; 25 µg/mL (≈ 50.2 µM) in [15]; 6.25 µg/mL (≈ 12.6 µM) in data set [16]; 25 µg/mL (≈ 50.2 µM) in [17]. In [18], this compound showed an LD50 of approximately 200 mg/kg.

As to `NC[C@H]1O[C@H](O[C@H]2[C@H](O)[C@@H](O[C@H]3O[C@H](CO)[C@@H](O)[C@H](N)[C@H]3O)[C@H](N)C[C@@H]2N)[C@H](O)[C@@H](O)[C@@H]1O` [KMA, kanamycin A, reference compound], the MIC is 1.56 µg/mL (≈ 3.22 µM) in [1]; 25 µg/mL (≈ 51.6 µM) in [2]; 0.78 µg/mL (≈ 1.61 µM) in [3]; 12.5 µg/mL (≈ 25.8 µM) in data set [4]; 0.78 µg/mL (≈ 1.61 µM) in data set [5] (Escherichia coli); more than 100 µg/mL in [6]. For the same compound, the MIC was more than 100 µg/mL in data set [7] (setting [21]); 50 µg/mL (≈ 103 µM) in data set [8] (setting [20]); 3.12 µg/mL (≈ 6.44 µM) in data set [9]; more than 100 µg/mL in [10]; 6.25 µg/mL (≈ 12.9 µM) in data set [11]; more than 100 µg/mL in data set [12]. Also, the MIC in [13] was 0.78 µg/mL (≈ 1.61 µM); in data set [14], 12.5 µg/mL (≈ 25.8 µM); in data set [15], 3.12 µg/mL (≈ 6.44 µM); in data set [16], 6.25 µg/mL (≈ 12.9 µM); in data set [17] it was more than 100 µg/mL.

These data come from patent publication US5527781A, “4-O-(aminoglycosyl)- or 4,6-di-O-(aminoglycosyl)-2,5-dideoxy-5,5-difluorostreptamine derivatives” (Zaidan Hojin Biseibutsu Kagaku Kenkyu Kai, priority 1990, dated 1996).
